Each structure is given as a SMILES string.

This is an account of results in patent US8129327B2, “Packaging for high moisture bar soap” (The Procter & Gamble Company, priority 2006, dated 2012).

Assay [1] concerns aspergillus sydowii. The assay is described as follows: inhibition of mold growth on paperboard package containing high moisture bar soap. Conditions: fungicide-treated paperboard package containing high moisture bar soap. An excerpt: (§1) The present invention further relates to a method of inhibiting the growth of mold, especially certain species of mold such as aspergillus sydowii and/or penicillium chrysogenum, that can grow on a paperboard package containing a high moisture bar soap composition.
(§2) Such a fungicide material is commercially available from Intace S.A. under the tradename INTACE B-6773.

Assay [2] relates to penicillium chrysogenum. The description is as above. Conditions: fungicide-treated paperboard package containing high moisture bar soap.
From the text: as §1, §2

Take `COC(=O)Nc1nc2ccccc2[nH]1` [carbendazim]: the “inhibition of the growth of mold on paperboard packaging” value in assay [1] and in assay [2] was “typically resistant” in each case.
